assay: Drug metabolism in po dosed NMRI mouse plasma assessed as release of 3-methoxyaniline; format: ADME, organism-based; conditions: in vivo
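Throughout, for logD: logD at pH 7.4 derived from a chromatographic hydrophobicity index measured by reversed-phase HPLC.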

Row | Drug metabolism | SMILES
1 | Metabolite_Notdetected | COc1cccc(NC(=O)c2nnn(Cc3ccc(CN4CCOCC4)cc3)c2N)c1

assay: Drug metabolism in mouse plasma assessed as release of 3-methoxyaniline measured after 5 hrs; format: ADME, cell-free; conditions: not given

Row | Drug metabolism | SMILES
2 | Metabolite_Notdetected | COc1cccc(NC(=O)c2nnn(Cc3ccc(CN4CCOCC4)cc3)c2N)c1

conditions: buffer, pH 7.4

Row | SMILES | logD
3 | COc1cccc(NC(=O)c2nnn(Cc3ccncc3)c2N)c1 | 1.4
4 | COc1cccc(NC(=O)c2nnn(CC3CCN(C(=O)OC(C)(C)C)CC3)c2N)c1 | 2.9
5 | COc1cccc(NC(=O)c2nnn(C(C)c3ccc(C(C)(C)C)cc3)c2N)c1 (stereo not given) | 3.9
6 | Nc1c(C(=O)NC23CC4CC(CC(C4)C2)C3)nnn1Cc1ccc(CN2CCOCC2)cc1 | 2
7 | COc1cccc(N(C)C(=O)c2nnn(Cc3ccc(CN4CCOCC4)cc3)c2N)c1 | 2
8 | Cc1cccc(NC(=O)c2nnn(Cc3ccc(CN4CCOCC4)cc3)c2N)c1 | 2
9 | COc1cc(NC(=O)c2nnn(Cc3ccc(CN4CCOCC4)cc3)c2N)nc(OC)n1 | 2.1
10 | COc1cccc(NC(=O)c2nnn(Cc3ccc(OC(F)(F)F)cc3)c2N)c1 | 3.6
11 | Nc1c(-c2nc(C3CCOCC3)no2)nnn1Cc1ccc(CN2CCOCC2)cc1 | 1.3
12 | COc1cccc(NC(=O)c2nnn(Cc3ccc(C#N)cc3)c2N)c1 | 2.3
13 | Cc1noc(C)c1-c1noc(-c2nnn(Cc3ccc(CN4CCOCC4)cc3)c2N)n1 | 2.1
14 | COc1cc(NC(=O)c2nnn(Cc3ccc(CN4CCOCC4)cc3)c2N)cc(OC)c1 | 2.2
15 | COc1nnccc1-c1noc(-c2nnn(Cc3ccc(CN4CCOCC4)cc3)c2N)n1 | 1
16 | COc1cccc(NC(=O)c2nnn(Cc3ccc(C4CC4)cc3)c2N)c1 | 3.2

Now from value to compound:

Row | logD | SMILES
17 | 0.9 | Nc1c(-c2nc(C3CCC(O)CC3)no2)nnn1Cc1ccc(CN2CCOCC2)cc1 (stereo not given)
18 | 2 | COc1cccc(NC(=O)c2nnn(Cc3cc(C)on3)c2N)c1
19 | 1.3 | COc1cccc(NC(=O)c2nnn(Cc3ccc([S+](C)[O-])cc3)c2N)c1 (stereo not given)
20 | 2 | COC1CCCC(NC(=O)c2nnn(Cc3ccc(CN4CCOCC4)cc3)c2N)C1 (stereo not given)
21 | 2.1 | COc1ccccc1-c1noc(-c2nnn(Cc3ccc(CN4CCOCC4)cc3)c2N)n1
22 | 2.1 | COc1cccc(NC(=O)c2nnn(Cc3ccc(CN4CCOCC4)cc3)c2N)c1F
23 | 2 | COc1ccnc(NC(=O)c2nnn(Cc3ccc(CN4CCOCC4)cc3)c2N)c1
24 | 2.6 | COc1cccc(NC(=O)c2nnn(Cc3ccccc3)c2N)c1
25 | 1.2 | COc1cccc(NC(=O)c2nnn(CC3CCN(C(C)=O)CC3)c2N)c1
26 | 3.4 | COc1cccc(NC(=O)c2nnn(Cc3ccc(C(C)C)cc3)c2N)c1
27 | 2 | Nc1c(C(=O)Nc2ccccc2)nnn1Cc1ccc(CN2CCOCC2)cc1
28 | 1.1 | COc1cnccc1-c1noc(-c2nnn(Cc3ccc(CN4CCOCC4)cc3)c2N)n1
29 | 2.1 | COc1cc(NC(=O)c2nnn(Cc3ccc(CN4CCOCC4)cc3)c2N)ccc1F
30 | 2.4 | COc1cc(F)cc(NC(=O)c2nnn(Cc3ccc(CN4CCOCC4)cc3)c2N)c1
31 | 2.6 | Nc1c(-c2nc(-c3ccccc3)no2)nnn1Cc1ccc(CN2CCOCC2)cc1
32 | 0.6 | COc1cccc(NC(=O)c2nnn(CC3CCNCC3)c2N)c1
33 | 1.7 | COc1ncccc1-c1noc(-c2nnn(Cc3ccc(CN4CCOCC4)cc3)c2N)n1
34 | 2.4 | COc1cccc(NC(=O)c2nnn(Cc3ccc(-n4cccn4)cc3)c2N)c1
35 | 1 | COc1cccnc1-c1noc(-c2nnn(Cc3ccc(CN4CCOCC4)cc3)c2N)n1

conditions: mouse, in vivo, po, 10 mg/kg, 8 h

Row | SMILES | AUC [ng·min/mL]
36 | COc1cc(NC(=O)c2nnn(Cc3ccc(CN4CCOCC4)cc3)c2N)nc(OC)n1 | 300000
37 | COc1cccc(NC(=O)c2nnn(Cc3ccc(OC(F)(F)F)cc3)c2N)c1 | 2300
38 | COc1cc(NC(=O)c2nnn(Cc3ccc(CN4CCOCC4)cc3)c2N)cc(OC)c1 | 370000

Further lines, results first:

Row | AUC [ng·min/mL] | SMILES
39 | 3200 | COc1cccc(NC(=O)c2nnn(Cc3ccc(C(C)C)cc3)c2N)c1
40 | 190000 | COc1ncccc1-c1noc(-c2nnn(Cc3ccc(CN4CCOCC4)cc3)c2N)n1

conditions: mouse, in vivo, po, 10 mg/kg, 24 h

Row | SMILES | Cmax [ng/mL]
41 | COc1cc(NC(=O)c2nnn(Cc3ccc(CN4CCOCC4)cc3)c2N)nc(OC)n1 | 1300
42 | COc1cccc(NC(=O)c2nnn(Cc3ccc(OC(F)(F)F)cc3)c2N)c1 | 13
43 | COc1cc(NC(=O)c2nnn(Cc3ccc(CN4CCOCC4)cc3)c2N)cc(OC)c1 | 1600

More lines, now with the values ahead:

Row | Cmax [ng/mL] | SMILES
44 | 17 | COc1cccc(NC(=O)c2nnn(Cc3ccc(C(C)C)cc3)c2N)c1
45 | 1300 | COc1ncccc1-c1noc(-c2nnn(Cc3ccc(CN4CCOCC4)cc3)c2N)n1
